Test results as given in patent EP4740940A1, “POLLEN PARTICLES AS CARRIERS FOR PULMONARY DELIVERY” (Universidade de Santiago de Compostela, priority 2023, dated 2025).
Converted amounts (≈) assume the structure as drawn.

What was measured:
RAW 264.7 cells = test: MTT cytotoxicity assay; type: cell-based; conditions: 12.5 µg/mL rifabutin
Method: To ensure that the microparticles of the invention can be safely used for pharmaceutical uses, MTT was used to investigate their cytotoxicity in Raw264.7 cells. In that sense, the in vitro toxicity of the microparticles of the invention, prepared according to Example 4, was evaluated by means of an MTT colorimetric assay, quantifying the water-insoluble formazan in RAW 264.7 cells after 24 hours of incubation of different particle concentrations. Cells were seeded (10,000 cells/well) 24 h before the experiment in a 96-well plate in a DMEM culture medium (10% FBS and 1% penicillin/streptomycin) at […] 37°C and 5% CO2. The medium was then replaced with the formulations and the cells were incubated for 24 hours. Fresh medium was used as negative control and Triton x100 (1% v/v) was used as positive control. After 24 h, 0.5 mg/mL of MTT dissolved in PBS were added, and the cells were incubated for 4 h at 37°C in darkness. Formazan crystals were dissolved by means of adding HCl 0.04 N in isopropanol and absorbance was measured at 570 nm using a microplate reader (Synergy H1 Hybrid Multi-Mode, BioTek, Winooski, VT, USA). Cell viability (%) was calculated following the equation: Cell viability (%) = (Sample absorbance−Negative control absorbance)/(Positive control absorbance−Negative control absorbance) × 100 [formula]

M. phlei, M. smegmatis = test: Resazurin-based microdilution growth inhibition assay; type: cell-based; conditions: for IC50 / IC90: strain and unit inferred
Method: The antibacterial activity of the microparticles of the invention with rifabutin (and of the nanosystems) was evaluated in the strain that grows rapidly, M. phlei, and in the strain that grows slowly, M. smegmatis, using a resazurin-based microdilution assay according to the EUCAST guidelines and CSLI guidelines with slight modifications. This is a quick and objective method, and the minimum inhibitory concentration (MIC) is easily detectable because resazurin (blue) turns into resorufin (pink fluorescence) in the presence of viable bacteria. The microparticles of the invention with rifabutin were diluted in a cation-adjusted 2X Mueller-Hinton broth (CaMHB) until reaching a final antibiotic concentration of 32 mg/L. Since the range of susceptibility of Mycobacterium species to rifabutin is ≤0.25-16 mg/L, the highest tested antibiotic concentration was 16 mg/L. A bacterial suspension (in CaMHB) was diluted to a final concentration of 5 × 10^5 CFU/mL. For efficacy determination, the following controls were used: (i) growth control (without treatment), (ii) sterility control (CaMHB), (iii) positive control for inhibitory effect (free rifabutin in solution), and as well as (iv) the microparticles of the invention (without rifabutin), so as to take into account the possible effects of the microparticles of the invention on bacterial growth. […] Fluorescence intensity was measured at 560 and 590 nm of excitation and monitored using the FLUOR®star Omega multimode lector (Biotron Healthcare, India) and the MARS data analysis software, after an incubation period of 30 min at 37°C. The lowest concentration at which color change was observed was considered the minimum inhibitory concentration (MIC) value. Furthermore, IC50 was calculated using an online tool: "Quest Graph™ IC50 Calculator". AAT Bioquest, Inc.

Mycobacterium smegmatis = test: Biofilm disruption, crystal violet assay; type: cell-based; set-up: MIC: unit not given beside the values
Method: In these experiments, the antimicrobial potential of the system was evaluated in Mycobacterium smegmatis used as a model of M. tuberculosis as they have homologous genes. The biofilm formation potential of Mycobacterium smegmatis was evaluated by scanning electron microscopy and the formation thereof was quantified with crystal violet, using 96-well plates made of polyvinyl chloride.
A crystal violet-based spectrophotometric study was used. To that end, M. smegmatis was inoculated in liquid culture (5 mL of 7H9 medium supplemented with OACC) and left to grow to exponential phase. The culture was diluted 1:100 and 100 µL were pipetted into each well. The controls were the rifabutin-free formulations and the blank was the bacterial culture-free medium. After incubating for two days at 37°C and once the biofilm was formed, the plates were washed with distilled water to remove planktonic cells and 200 µL of each formulation were added in serial dilutions (in the same manner as above). After 24 h, the plate was washed with water again to remove possible planktonic cells, and the biofilm was stained with 125 µL of 0.1% crystal violet solution and incubated for 10 min at room temperature. It was the washed with water and stirred vigorously. Finally, remaining crystal violet was solubilized by adding 200 µL of 95% ethanol and incubating for 15 min at room temperature. The solution was then transferred to a 96-well, flat-bottom plate, and biofilm formation was measured at 570 nm.

[1] = cited from earlier work
Mycobacterium species = conditions: cited from earlier work
[2] = Mycolicibacterium smegmatis, Biofilm culture, unit inferred

SMILES: CO[C@H]1/C=C/O[C@@]2(C)Oc3c(C)c(O)c4c(c3C2=O)C2=NC3(CCN(CC(C)C)CC3)NC2=C(NC(=O)/C(C)=C\C=C\[C@H](C)[C@H](O)[C@@H](C)[C@@H](O)[C@@H](C)[C@H](OC(C)=O)[C@@H]1C)C4=O [Rifabutin]
- viability (RAW 264.7 cells): > 50%
- MIC (M. phlei, M. smegmatis; 2-day preinoculum, strain and unit not given): 4
- MIC (M. phlei, M. smegmatis; 4-day preinoculum, strain and unit not given): 4
- IC50 (M. phlei, M. smegmatis; 48 h, 2-day preinoculum): 2.24 µg/mL (≈ 2.64 µM)
- IC90 (M. phlei, M. smegmatis; 48 h, 2-day preinoculum): 20.2 µg/mL (≈ 23.8 µM)
- IC50 (M. phlei, M. smegmatis; 96 h, 4-day preinoculum): 2.04 µg/mL (≈ 2.41 µM)
- IC90 (M. phlei, M. smegmatis; 96 h, 4-day preinoculum): 18.4 µg/mL (≈ 21.7 µM)
- IC50 (M. phlei, M. smegmatis; Preinoculum culture t=0): 0.34 µg/mL (≈ 0.401 µM)
- IC90 (M. phlei, M. smegmatis; Preinoculum culture t=0): 3.06 µg/mL (≈ 3.61 µM)
- MIC (M. phlei, M. smegmatis; Preinoculum culture t=0, strain and unit not printed in table (method: mg/L)): 1
- difference between culture with rifabutin in suspension and without treatment (Mycobacterium smegmatis; 2 mg/mL): hardly any differences
- MIC (Mycobacterium smegmatis; Biofilm culture, unit not given): 4
- IC50 (Mycobacterium smegmatis; [2]): 4.67 µg/mL (≈ 5.51 µM)
- IC90 (Mycobacterium smegmatis; [2]): 42 µg/mL (≈ 49.6 µM)
- oral bioavailability (reaches systemic circulation) [1]: less than 20%
- range of susceptibility of Mycobacterium species to rifabutin (Mycobacterium species): 0.25 to 16 mg/L
